Legend:
[1] = test system: Karenia brevis (Piney Island A2); experiment: K. brevis culture treatment, intact cell counts (light microscope / FlowCam); assay type: cell-based; conditions: for cell appearance in FlowCam images: 100 μM final concentration, treated flasks
Experimental: The present inventors have determined that NO may be used to trigger cell death in Karenia brevis and potentially other harmful algae. The response to low concentrations occurs within 24 hours and varies with concentration. To describe the dose response, cultures of K. brevis (Piney Island A2) were exposed to varied concentrations of the nitric oxide donor diethylamine NONOate sodium salt hydrate or DEA NONOate (IUPAC name: sodium N-(diethylamino)-N-oxidonitrous amide).
Work described by Chung et al. (2008) employed 500 μM DEA NO to elicit ScDSP-1 expression in Skeletonema costatum. The present inventors sought to determine the low end of the dose response, if any effect, in K. brevis. Trials therefore tested the effect of DEA NONOate concentrations ranging from 100 μM to 0.1 μM. For each trial, K. brevis cultures were grown in L1 media. Cultures were diluted 1:1 from a stock flask into a total volume of 125 mL in 250-mL acid washed and autoclaved flasks. Cultures were allowed to recover for 2-4 days prior to treatment. Immediately prior to treatment, DEA NONOate (Sigma-Aldrich, St. Louis, Mo.) was dissolved from its powdered form in sterile nuclease-free water. The solution was made to a concentration of 1 mg mL^−1. Two trials were performed to delineate responses to different concentrations of NO. In each case, the appropriate volume of DEA NONO solution was added and the cultured swirled by hand gently to mix the solution. Control flasks were also used for each trial; these received only an aliquot of the water used for dissolving DEA NONOate, equal to the largest volume administered to treatment flasks for that trial. At the concentration of 1 mg mL^−1, volumes of DEA NONO solution added ranged from 1.9 mL to 1.9 μL for 100 μM to 0.1 μM final concentrations in culture flasks. Three replicate flasks were used for each concentration and negative controls. Prior to treatment and at each sampling point after treatment, 5 mL of culture were removed for counting. A 1 mL aliquot was imaged/counted on the FlowCam flow-through microscope and the remainder was stained with Lugol's iodine solution and counted by light microscope on a gridded Sedgewick counting slide (1 mm^2 grid size). For slide counting, 50-70 grid squares were counted for each sample. Although counts were obtained for most samples by FlowCam and light microscopy, the light microscope counts were used for recording quantitative data while FlowCam images were used as a record of cell appearances.

[2] = test system: Karenia brevis (Piney Island A2); experiment: as above; assay type: cell-based; conditions: 20 μM final concentration, higher-density cultures, T=2 days, two replicates
caspase 3 = experiment: Colorimetric caspase-like enzyme activity in K. brevis, caspase 3; assay type: cell-based, Karenia brevis
Experimental: (§1) Since caspase activity is a hallmark of PCD, experiments were conducted to examine caspase-like enzyme activity in K. brevis. The activity of enzymes that are similar to caspase-3 and caspase-8 were examined. The assays use a commercially available kit (MBL International, Woburn, Mass.) to measure the protease activity specific to certain amino acid sequence motifs. A short time series was performed to measure upregulation of caspase-like activity due to exposure to NO. NO was produced from the compound DEA-NONOate (use of this is previously described herein). […] Based on these findings, there is at least a 2-3 fold up-regulation of caspase-like activity due to NO exposure at 50-100 micromolar. This provides evidence that K. brevis death due to NO exposure is mediated by PCD pathways in the cells. This activity appears rapidly (within 20 minutes), and can decline rapidly (by 120 minutes). The decline is presumably due to actual death of the cells, since at the 120 minute mark, many cells were already in the process of lysis when viewed microscopically.

caspase 8 = experiment: Colorimetric caspase-like enzyme activity in K. brevis, caspase 8; assay type: cell-based, Karenia brevis
Experimental: as §1

caspase-like activity [3] = experiment: Caspase-like activity in K. brevis, summary statements; assay type: cell-based, Karenia brevis
Experimental: as §1

ScDSP-1 = conditions: Skeletonema costatum; cited from earlier work
caspase-like activity [4] = conditions: pretreatment before supplementation of NO donors; cited from earlier work
[5] = Experiment 1, 100 uM NO, 60 min
[6] = Experiment 1, 100 uM NO, 120 min

Q: Which “cell appearance in FlowCam images” value [1] does the source give for CCN(CC)N([O-])N=O.[Na+] [DEA NONOate, sodium N-(diethylamino)-N-oxidonitrous amide, reference compound] here?
A: Its value is “all particles imaged by the FlowCam resembled the disrupted cells”.

Q: And the “cell appearance in FlowCam images” value ([1]; listed as DEA NONO)?
A: Its value is “disrupted”.

Q: And the intact cells present ([1]; 100 μM, 1 day post-treatment)?
A: The intact cells present was “no intact cells were observed”.

Q: And the intact cells present ([1]; 100 μM, 2 days post-treatment)?
A: Its intact cells present is “no intact cells were observed”.

Q: And the “decrease of average intact cell count from pre-treatment counts” value [2]?
A: Its value is 98.6%.

Q: Which “protection against NO-induced mortality” value ([1]; E-64 10 μM added with 20 μM NO) does the source give for CC(C)C[C@H](NC(=O)[C@H]1O[C@@H]1C(=O)O)C(=O)NCCCCN=C(N)N [E-64, L-transepoxysuccinyl-leucylamido-[4-guanidino]butane, reference compound] here?
A: The value was “no protection”.

Q: For [N]=O [NO, nitric oxide], which “cell counts of surviving cells (recovery)” value ([1]; 10 μM, T=5 days) is on record?
A: Its value is “increased to greater than pre-treatment numbers”.

Q: And the intact cells present ([1]; 100 μM, 1 day post-treatment)?
A: The intact cells present was “no intact cells were present”.

Q: What about the cell death ([1]; 100 μM, 24 hours) of the same compound?
A: The cell death was “complete cell death”.

Q: What about the intact cells present ([1]; 100 μM, 2 days post-treatment) of the same compound?
A: Its intact cells present is “no intact cells were present”.

Q: What about the mortality at 10 µM ([1]; Karenia brevis, 10 μM, second trial (FIG. 3), read-out: mortality / reduction of intact cells from pre-treatment numbers) of the same compound?
A: Its mortality at 10 µM is about 50%.

Q: What about the mortality at 20 µM ([1]; Karenia brevis, 20 μM NO (FIG. 4)) of the same compound?
A: The mortality at 20 µM was about 50%.

Q: What about the “time in which response to low concentrations occurs” value ([1]; low concentrations) of the same compound?
A: Its value is at most 24 h.

Q: And the “effect on intact cell numbers” value ([1]; lower concentrations, 1 μM or less (0.1 μM, 1 μM))?
A: Its value is “no effect”.

Q: What about the “Absorbance of colorimetric caspase cleavage product, caspase 3” value (“Absorbance … caspase 3” for short) (caspase 3; [5]) of the same compound?
A: The value was 0.014.

Q: What about the “Upregulation vs. control (fold), caspase 3” value (caspase 3; [5]) of the same compound?
A: Its value is 14 fold.

Q: And the “Absorbance … caspase 3” value (caspase 3; [6])?
A: The value was 0.001.

Q: What about the “Upregulation vs. control (fold), caspase 3” value (caspase 3; [6]) of the same compound?
A: Its value is 1 fold.

Q: What about the “Absorbance … caspase 3” value (caspase 3; Experiment 2, 50 uM NO, 20 min) of the same compound?
A: The value was 0.016.

Q: What about the “Upregulation vs. control (fold), caspase 3” value (caspase 3; Experiment 2, 50 uM NO, 20 min) of the same compound?
A: The value was 2.7 fold.

Q: And the “Absorbance … caspase 3” value (caspase 3; Experiment 2, 50 uM NO, 40 min)?
A: The value was 0.016.

Q: And the “Upregulation vs. control (fold), caspase 3” value (caspase 3; Experiment 2, 50 uM NO, 40 min)?
A: Its value is 2.7 fold.

Q: What about the “Absorbance … caspase 3” value (caspase 3; Experiment 2, 50 uM NO, 60 min) of the same compound?
A: The value was 0.013.

Q: And the “Upregulation vs. control (fold), caspase 3” value (caspase 3; Experiment 2, 50 uM NO, 60 min)?
A: Its value is 2.2 fold.

Q: And the “Absorbance of colorimetric caspase cleavage product, caspase 8” value (“Absorbance … caspase 8” for short) (caspase 8; [5])?
A: The value was 0.017.

Q: What about the “Upregulation vs. control (fold), caspase 8” value (caspase 8; [5]) of the same compound?
A: The value was 2.4 fold.

Q: What about the “Absorbance … caspase 8” value (caspase 8; [6]) of the same compound?
A: The value was 0.006.

Q: And the “Upregulation vs. control (fold), caspase 8” value (caspase 8; [6])?
A: Its value is 0.9 fold.

Q: And the “Absorbance … caspase 8” value (caspase 8; Experiment 2, 50 uM NO, 20 min)?
A: The value was 0.021.

Q: What about the “Upregulation vs. control (fold), caspase 8” value (caspase 8; Experiment 2, 50 uM NO, 20 min) of the same compound?
A: Its value is 2.1 fold.

Q: And the “Absorbance … caspase 8” value (caspase 8; Experiment 2, 50 uM NO, 40 min)?
A: Its value is 0.019.

Q: And the “Upregulation vs. control (fold), caspase 8” value (caspase 8; Experiment 2, 50 uM NO, 40 min)?
A: The value was 1.9 fold.

Q: And the “Absorbance … caspase 8” value (caspase 8; Experiment 2, 50 uM NO, 60 min)?
A: The value was 0.018.

Q: And the “Upregulation vs. control (fold), caspase 8” value (caspase 8; Experiment 2, 50 uM NO, 60 min)?
A: The value was 1.8 fold.

Q: What about the “time by which caspase-like activity can decline” value (caspase-like activity [3]; NO exposure) of the same compound?
A: Its value is at most 120 min.

Q: What about the “time in which caspase-like activity appears” value (caspase-like activity [3]; NO exposure) of the same compound?
A: The value was at most 20 min.

Q: What about the “up-regulation of caspase-like activity” value (caspase-like activity [3]; NO exposure at 50-100 micromolar) of the same compound?
A: The value was 2-3 fold.

Q: What about the “expression of a death specific protein” value (ScDSP-1) of the same compound?
A: The value was “induce expression of a death specific protein”.

Q: For Ac-DEVD-CHO, which “effect on increase in caspase-like activity” value (caspase-like activity [4]) is on record?
A: The value was “prevented increase in caspase-like activity”.
